# Measurements reported in patent US20050037382A1, “Methods and compositions for treating and preventing autoimmune disorders” (priority 2003, published 2005).
# Tested on: chronic colitis induced by DSS treatment
# Assay: Apyrase administration in DSS-induced chronic colitis (weight)
# Assay type: in vivo, mice
# Details: apyrase 0.4 units/g weight at week five
# From the text: Adult mice (55-75 day old) sex-matched hemizygous CD39+/−, CD39−/−, and CD39+/+ littermates were given 3-5% (w/v) DSS in drinking water for seven days to induce a pathological state reminiscent of acute ulcerative colitis. Mice were fasted on day 7, and sacrificed the next day. Tissue was collected for Haematoxylin and Eosin staining, immunohistochemistry staining (for CD39, CD39L1, P-selectin, Fibrin, and P2Y1, for example), Western blot analysis, and NTPDase activity. To induce chronic ulcerative colitis, mice were treated with 3% DSS for seven days followed by a one week rest period. DSS treatment was resumed for seven days followed by another rest period of seven days. Treatment was resumed in the fifth week for seven days. At least six age- and sex-matched hemizygous CD39+/−, CD39−/−, and CD39+/+ mice were studied at the end of seven days of DSS treatment (acute colitis) or 5 week DSS treatment (chronic colitis). Mice were housed in standard cages and were allowed to drink and feed ad libitum. Animals were weighed daily. To test the hypothesis that the administration of an NTPDase can delay the damage caused by colitis, CD39+/+ and CD39+/− mice, following the induction of chronic colitis by DSS treatment, were administered with apyrase, an NTPDase (see FIGS. 4A and 4B). Apyrase was administered at 0.4 units/g weight at week five following the initial treatment with DSS.
substance,measurement,setting,value
apyrase,weight following apyrase treatment,CD39+/+ mice,significant gain in weight
same,weight following apyrase treatment,"CD39−/+ (hemizygous) mice, compared with effect in CD39+/+ mice",further enhanced
